Reference: patent US9655824B2, “Use of diphenylmethane derivatives as tyrosinase inhibitors” (Symrise AG, priority 2003, dated 2017)

Assays:
Assay type in all cases: cell-based
[1] = tested on: B16V mouse melanoma cells; assay: Lightening effect: inhibition of pigmentation in α-MSH-stimulated B16V cells; settings: for IC50: Mus musculus, B16V cells, 10 nM α-MSH, 96 h, absorption 400 nm; for Activity greater than that of kojic acid by a factor: ratio of IC50 values versus kojic acid
Experimental: Test method: B16V mouse melanoma cells are distributed in a 96-well micro titre plate in a concentration of 5×10^3 cells/well. After culturing for 24 h at 37° C. and 5% CO2 in RPMI medium, enriched with 10% foetal calf serum, various concentrations of the test substances and 10 nM α-MSH (α-melanocyte stimulating hormone) are added and the plates are incubated for a further 96 h. The maximum concentration of the test substances used corresponds to 0.1 times the value of the particular IC20 value from the cytotoxicity assay. A parallel incubation was carried out with kojic acid as standard in concentrations of 0.01 mM, 0.1 mM and 1 mM. After the incubation, SDS and NaOH (final concentrations: 1 mM and 1M, respectively) are added to the culture medium and the adsorption (A) is measured at 400 nm after 3 h. The inhibition of the pigmentation in the presence of the test compounds or kojic acid was calculated in accordance with the following equation: Inhibition of pigmentation (%)=100−[(Atest compound/Acontrol)×100] The IC50 is calculated for each test compound from the inhibition of the pigmentation (%) in a series of dilutions of test compounds. The IC50 is the concentration of a test compound at which the pigmentation is 50% inhibited.

[2] = Cytotoxicity determination (MTT), 3T3 cells; settings: mouse, 3T3 fibrosarcoma cells; 3T3 cells, 48 h incubation, MTT
Experimental: (§1) 3T3 fibrosarcoma cells or B16V mouse melanoma cells are distributed in a 96-well microtitre plate in a concentration of 1×10^4 cells/well (3T3) or 2×10^4 cells/well (B16V). After culturing for 24 h at 37° C. and 5% CO2 in DMEM medium (3T3 cells) or RPMI medium (B16V cells), enriched with 10% foetal calf serum, the medium is removed by suction. Various concentrations of the test substances, dissolved in fresh medium enriched with 5% foetal calf serum, are added and the plates are incubated for a further 48 h. A parallel incubation is carried out using SDS as standard in concentrations of 0.01 mM, 0.1 mM, 1 mM and 10 mM. After the incubation, the medium is removed by suction and the cells are incubated for with (sic) 2 h with MTT (3-[4,5-dimethylthiazol-2-yl]2,5-diphenyl tetrazolium bromide). After extraction of the dye with SDS acidified with acetic acid in DMSO (10 min), the absorption (A) at 570 nm is measured.
(§2) Average value and standard deviation of the controls, the blanks and the samples are calculated. The average value of the blanks is substracted from the average values of the controls and samples. The viability of the cells is indicated as a percentage with respect to the controls (100%): Viability (%)=(Atest compound/Acontrol)×100]

[3] = Cytotoxicity determination (MTT), B16V cells; settings: mouse, B16V melanoma cells, 48 h incubation
Experimental: as §1, §2

3T3 fibrosarcoma cells = assay: Cytotoxicity determination (MTT), 3T3 cells; settings: approximately comparable to 4-hexylresorcinol
Experimental: as §1, §2

Row | IC50 [1] [µM] | SMILES | Activity greater than that of kojic acid by a factor [1] | IC20 at 48 h [2] [µM] | IC50 at 48 h [2] [µM] | IC20 at 48 h [3] [µM] | IC50 at 48 h [3] [µM] | Effectiveness compared with 4-hexylresorcinol ([1]; versus 4-hexylresorcinol) | Cytotoxicity (in words) (3T3 fibrosarcoma cells)
1 | 5.2 | CCCCCCc1ccc(O)cc1O [4-hexylresorcinol] | approximately 87 | 70 | 140 | – | – | – | –
2 | – | O=c1cc(CO)occ1O [Kojic acid, 5-hydroxy-2-hydroxymethyl-4-pyranone] | – | > 100000 | > 100000 | > 100000 | > 100000 | – | –
3 | 2.1 | CC(c1ccccc1)c1ccc(O)cc1O (stereo not shown) [Styrylresorcinol (4), 4-(1-phenylethyl)-1,3-dihydroxybenzene] | approximately 215 | 70 | 150 | 20 | 140 | more than twice as effective | relatively low cytotoxicity
